Results published in US10935552B2, “Aie luminogens for visualization and treatment of cancer” (THE HONG KONG UNIVERSITY OF SCIENCE AND TECHNOLOGY, priority 2015, dated 2021).
Where a name gives a salt, the structure may show the parent alone. One block for each compound: values may come before it.

Legend:
different cell lines = assay: Fluorescence microscopy of different cell lines treated with TPE-TMX; assay type: cell-based
Text: (§1) To examine this hypothesis, fluorescence microscopy of different cell lines treated with TPE-TMX was undertaken. […] Lysosome is an acidic enzyme enriched organelle responsible for digesting intracellular biomolecules, while TPE-TMX with a basic amino group is more favored to target the lysosomes in cells. Once the molecules are accumulated on the surface of lysosome, their intermolecular motions are restricted, which activates the AIE process and thus lights up the organelle.

[1] = test system: ER+ breast cancer cells (MCF-7 cells); assay: MTT cytotoxicity of TPE-TMX, MCF-7 cells; assay type: cell-based
Procedure: (§2) For the rational molecular design of TPE-TMX, it is extremely critical that it can restore its therapeutic ability as TMX after the modification. To investigate its therapeutic performance, the cytotoxicity of TPE-TMX to a variety of cell lines was evaluated using a MTT assay (FIG. 33). […] Therefore, TPE-TMX may form a complex with receptor that can manifest selective accumulation in MCF-7 cells and lead to cell death.

MCF-7 cells [2] = assay: Lysosomal imaging in MCF-7 cells, co-staining with LTR; assay type: cell-based
Procedure: The behavior of TPE-TMX in cellular settings was studied as compared to TMX. MCF-7 cells were incubated with 2 μM TPE-TMX and […] TMX for 24 hrs, respectively. The cells were then washed and directly observed under the microscope without fixation. […] However, the exact intracellular location of TMX cannot be confirmed by fluorescent microscopy because its emission wavelength is not in the range of the visible spectrum. Therefore, a series of commercial fluorescent markers were used to image drug delivery of TMX. […] On the other hand, TPE-TMX, without any aid of fluorescent dye, can be successfully monitored in the cells thanks to its intense blue emission. The controls display no emission under UV irradiation.
To further confirm the subcellular distribution of TPE-TMX, LTR was also used to co-stain MCF-7 cells with TPE-TMX. […] As expected, TPE-TMX is a specific fluorescent dye to visualize lysosomal organelle structures as well as monitor the drug release.

a variety of cell lines = assay: MTT cytotoxicity of TPE-TMX, other cell lines; assay type: cell-based; conditions: up to 10 μM
Procedure: as §2

MCF-7 cells [3] = assay: Photo-bleaching resistance by continuous scanning of stained MCF-7 cells; assay type: cell-based; conditions: MCF-7, 2 μM 30 min, 50 scans, total irradiation 3 min, 0.1 mW
Procedure: In order to determine the working mechanism of TPE-TMX to MCF-7 cells, probes with long-term tracking are highly pursued. To compare the photo-bleaching resistance between TPE-TMX and LTR, continuous scanning of the stained MCF-7 cells by UV irradiation was carried out and the PL intensity at each scan was recorded. These two sets of MCF-7 cells were first incubated in a medium for 24 hrs and then stained with TPE-TMX and LTR at 2 μM for 30 min, respectively. The excitation power from 405 nm and 561 nm channels of the microscope was unified as 0.1 mW. The initial fluorescence intensity for the dyes was normalized and the percentage of intensity loss was calculated.

MCF-7 cells [4] = assay: Fluorescence microscopy and long-term tracing of MCF-7 cells treated with TPE-TMX; assay type: cell-based; conditions: for Fluorescence of stained cells with increasing number of passages: long-term tracing
Text: as §1
The whole cells exclude nuclei are highly emissive after the treatment of TPE-TMX for 192 hrs, which is proposed as autophagy. This mechanism is thought to be a degradation system that is mediated by a unique organelle called the autophagosome and then fuses with lysosome to form an autolysosome. Once the autolysosomes are formed, the cells become dysfunctional and eventually cause cell death. […] This is the first time that autophagy can be fluorescently monitored using a theranostic agent for breast cancer cells.

[5] = test system: ER independent breast cancer cells (MDA-MB-231 cells); assay: MTT cytotoxicity of TPE-TMX, MDA-MB-231 cells; assay type: cell-based; conditions: MDA-MB-231, up to 10 μM
Procedure: as §2

HeLa cells [6] = assay: Autophagy induction by rapamycin in AIE-LysoY-stained HeLa cells; assay type: cell-based, human; conditions: HeLa stained with 10 μM AIE-LysoY, prolonged rapamycin treatment
HeLa cells [7] = assay: Cancer cell imaging for HeLa cells by IDA-TPE; assay type: cell-based, human; conditions: 10 μM, 30 mins
Procedure: Cell Culture. HeLa cells were cultured in MEM containing 10% FBS and 1% antibiotics (100 units/mL penicillin and 100 µg/mL streptomycin) in a 5% CO2 humidity incubator at 37° C.
The HeLa cells were grown overnight on a 35 mm petri dish with a cover slip. […] The cells were imaged under a fluorescent microscope (BX41 Microscope) using same excitation and emission filters: excitation filter=330-385 nm, dichroic mirror=420 nm, and emission filter=400 nm long pass.

[8] = MTT cell viability assay, HeLa cells; assay type: cell-based, human; conditions: human, HeLa cells, 15 μM, MTT
Procedure: Hela cells were incubated with different concentrations of Naph-IQ in culture medium for 24 hours.
Before employing AIE-LysoY as a fluorescent visualizer of lysosome, a 3-(4,5-dimethyl-2-thiazolyl)-2,5-diphenyltetrazolium bromide (MTT) cell proliferation assay was first conducted to evaluate its cytotoxicity. […] The good biocompatibility of AIE-LysoY enables its application as a fluorescent tracer to follow the autophagic process of lysosome.

HeLa cells [9] = assay: Photostability by continuous confocal scanning of stained HeLa cells; assay type: cell-based, human
Text: Compared with LTR, the working concentration of AIE-LysoY is much higher. LTR is not more sensitive than AIE-LysoY. As mentioned previously, LTR can only be used at low concentrations to avoid the ACQ effect. At such a low working concentration, the fluorescent probes molecularly disperse in the organelle and can be easily photooxidized by continuous excitation light, resulting in the low photostability of these probes. In order to evaluate the photostability of AIE-LysoY, a confocal microscope (Zeiss laser scanning confocal microscope LSM7 DUO) was applied to continuously scan cells stained by AIE-LysoY. The photostability of LTR was also measured for comparison. The power of excitation light (405 nm for AIE-LysoY and 561 nm for LTR) were unified by using a power meter. […] In contrast, the fluorescence intensity from LTR dropped to lower than 50% of its initial value after only 25 scans (FIG. 28, hollow circle line). The slight fluctuation of fluorescence signal can be ascribed to the dynamic movement of lysosome in living cells. The excellent photostability of AIE-LysoY may stem from its nanoparticles nature in lysosome imaging, which can protect the chromophore inside the particles from being photooxidzied. In this way, the fluorescence of […] can pertain after a long-time irradiation. […]

lysosome = assay: Lysosome imaging in HeLa cells, co-staining with LTR; assay type: cell-based, human; conditions: HeLa
Procedure: Then, AIE-LysoY was applied to lysosome imaging and its lysosome-targeting performance was assessed by fluorescence microscope. HeLa cells were stained with 10 μM of AIE-LysoY for 10 min, followed by washing away the abundant molecules of AIE-LysoY and incubation with 50 nM of LTR for 30 min. […] The fluorescence of AIE-LysoY overlaps perfectly with that of LTR, indicating the lysosome-targeting of AIE-LysoY.
Quantitative analysis of the degree of overlapping of these two fluorescence signals by Pearson's coefficient (Rr), which depicts the degree of linear dependence between two variables, gives an overlapping coefficient of 0.90. The high Rr value proves that AIE-LysoY is a lysosome-selective probe. […] Changing the staining time from 10 min to 60 min, the specificity to lysosome is retained, as well as the emission contrast.
To design the lysosome-specific bioprobe, a molecular engineering approach was employed. The precursor of AIE-LysoY, FAS-Br, and two morpholine-functionalized AIEgens, TPE-2Mor and Nred-mor were prepared and applied to cell imaging. The molecular structures of TPE-2mor and Nred-mor are shown below: […]

[10] = cited from earlier work
HeLa cells [11] = assay: Cancer cell imaging for HeLa cells (TTE, TFE, fl-TFE); assay type: cell-based, human
Procedure: (§3) Cell Culture. HeLa cells were cultured in MEM containing 10% FBS and 1% antibiotics (100 units/mL penicillin and 100 µg/mL streptomycin) in a 5% CO2 humidity incubator at 37° C. Cell Imaging. Lung cancer cell A549 were cultured in DMEM containing 10% FBS and antibiotics (100 units/mL penicillin and 100 µg/mL streptomycin) in a 5% CO2 humidity incubator at 37° C. Two different kind of cells were grown overnight on a 35 mm petri dish with a cover slip. The live cells were incubated with 10 μM of TTE for 15/30 mins, TFE for 30′ and fl-TFE for 30′ and 5 h (the last two have been tested only in HeLa cells). In a typical experiment, 2 μL of a 10 mM stock solution of TTE in DMSO were diluted to 1 mL with cell culture medium, followed by further dilution to desired concentration. The cells were imaged under a fluorescent microscope (BX41 Microscope) using same excitation and emission filters: excitation filter=330-385 nm, dichroic mirror=420 nm, and emission filter=400 nm long pass.
The HeLa cells were grown overnight on a 35 mm petri dish with a cover slip. The live cells were incubated with 10 μM of TTE for 30 mins, which are shown in FIG. 17A-B. The HeLa cells were incubated with 50 μM oleic acid for 6 hrs and then were co-stained by 10 μM TTE and 1 μg/mL for 15 mins.

Lung cancer cell A549 = assay: Cancer cell imaging for lung cancer cell A549 by TTE; assay type: cell-based; conditions: A549, 10 μM TTE, 15 mins
Procedure: as §3
The A549 cells were grown overnight on a 35 mm petri dish with a cover slip. The live cells were incubated with 10 μM of TTE for 30 mins. The A549 cells were incubated with 10 μM TTE and 1 μg/mL for 15 mins.

SMILES: CN(C)CCOc1ccc(C(=C(c2ccccc2)c2ccccc2)c2ccccc2)cc1 [TPE-TMX]
Subcellular localisation (different cell lines; all tested cell lines): localized on lysosomes in all tested cell lines
Morphological effect (different cell lines; other cell lines): no obvious morphological change
Cytotoxicity (therapeutic response) by MTT [1]: has only the therapeutic response to ER+ breast cancer cells (MCF-7 cells)
Subcellular distribution (MCF-7 cells [2]; MCF-7, 2 μM 30 min, then LTR 15 min): selectively stains lysosomes
Pearson correlation coefficient of co-localization with LTR (r) (MCF-7 cells [2]; MCF-7, 2 μM TPE-TMX): 0.96
Cell viability by MTT (a variety of cell lines): not dramatically altered
PL signal loss (MCF-7 cells [3]): no significant PL loss
Morphological effect (MCF-7 cells [4]; MCF-7): induces the formation of vacuole, lysosomal swelling and cell death
Effect on cells in continuous monitoring (MCF-7 cells [4]; MCF-7, 2 μM): induce vacuoles, lysosome swelling, and loss of the cell population
Fluorescence intensity in cells (MCF-7 cells [4]; MCF-7 versus other cell lines): more prominent in MCF-7 cells compared to the others
Fluorescence of stained cells with increasing number of passages (MCF-7 cells [4]): increases with increasing number of passages
Cell viability by MTT [5]: not dramatically altered

SMILES: CO[C@H]1C[C@@H]2CC[C@@H](C)[C@@](O)(O2)C(=O)C(=O)N2CCCC[C@H]2C(=O)O[C@H]([C@H](C)C[C@@H]2CC[C@@H](O)[C@H](OC)C2)CC(=O)[C@H](C)/C=C(\C)[C@@H](O)[C@@H](OC)C(=O)[C@H](C)C[C@H](C)/C=C/C=C/C=C/1C [rapamycin]
Lysosome number (yellow spots) (HeLa cells [6]): increased

SMILES: O=C(O)CN(CC(=O)O)Cc1ccc(C(=C(c2ccccc2)c2ccccc2)c2ccccc2)cc1 [IDA-TPE, iminodiacetic acid tetraphenylethene]
Cell uptake (HeLa cells [7]): can go inside the cancer cell
Fluorescence staining of cells (HeLa cells [7]): can target HeLa cells

Fluorescence signal after continuous scanning (HeLa cells [9]; 405 nm, total irradiation time ~6 min): almost remain unchanged
SMILES: Oc1cc(OCCCCCCN2CCOCC2)ccc1/C=N/N=C1c2ccccc2-c2ccccc21 [AIE-LysoY, (E)-2-(((9H-fluoren-9-ylidene)hydrazono)methyl)-5-((6-morpholinohexyl)oxy) phenol]
viability at 24 h, 15 µM [8]: > 80%
Lysosome targeting (lysosome; 10 μM 10 min, then 50 nM LTR 30 min): selectively accumulates in the dot-shaped lysosomes
Pearson's coefficient (Rr) of overlap with LTR (lysosome; 10 μM AIE-LysoY, 50 nM LTR): 0.90

SMILES: O=C(O)C(F)(F)F [TFA, trifluoroacetic acid]
pKa [10]: about −0.3

SMILES: c1csc(C(=C(c2cccs2)c2cccs2)c2cccs2)c1 [TTE, TetraThienylEthene]
Ability to enter cells as bioprobe (HeLa cells [11]; 10 μM, TTE in HeLa and A549, TFE and fl-TFE only in HeLa): the only one able to enter inside the cells
Organelle selectivity (overlap with BODIPY) (HeLa cells [11]; HeLa, 50 μM oleic acid 6 hrs, 10 μM TTE, 15 mins): can selectively target lipid droplets
Organelle selectivity (overlap with BODIPY) (Lung cancer cell A549): can selectively target lipid droplets

Fluorescence intensity relative to initial value (HeLa cells [9]; 561 nm, after 25 scans): lower than 50%
PL signal loss (MCF-7 cells [3]): more than 55%
SMILES: CN(C)CCNC(=O)CCc1ccc2n1[B-](F)(F)[N+]1=C(c3ccc[nH]3)C=CC1=C2 [LTR, reference compound]
Fluorescence of stained cells with increasing number of passages (MCF-7 cells [4]): dramatically weakened
